In ChEMBL document CHEMBL1149060, “Structure of malhamensilipin A, an inhibitor of protein tyrosine kinase, from the cultured chrysophyte Poterioochromonas malhamensis” (J Nat Prod, 1994) one finds IC50 data, which are given here for one molecule.

Molecules are shown by their SMILES.

The nature of the test: Inhibition of Rous sarcoma virus pp60v-src.

The molecule `CCCCCCCCC(Cl)C(Cl)C(O)C(Cl)C(Cl)C(Cl)CCCCCCCC/C(Cl)=C\OS(=O)(=O)O` (stereo unspecified) [MALHAMENSILIPIN A] showed an IC50 of 35 µM.

In general, IC50 refers to the midpoint of a concentration-inhibition curve. Low values mean greater potency in that assay, high ones weaker potency in that assay.
